Test results reported in PubChem BioAssay AID1583 (NINDS Approved Drug Screening Program, 2009).

System: polyglutamine-induced caspase-3 activation, cell assay
Assay: polyglutamine-triggered caspase-3 activation inhibitors, cell-based (AID 1583)

SMILES | EC50 [nM]
O[N+]1=CC=CCC1=S.On1ccccc1=S.[Zn] | 855
C[C@]12CCC3C(CC[C@]4(O)C[C@@H](O)CC[C@]34C=O)[C@@]1(O)CCC2C1=CC(=O)OC1 (some centres undefined) | 1680
C[C@@]1(C(=O)O)CC[C@]2(C)CC[C@]3(C)C4=CC=C5C=C(O)C(=O)C=C5[C@]4(C)CC[C@@]3(C)[C@@H]2C1 | 4630
C[C@H]1O[C@@H](O[C@H]2[C@@H](O)C[C@H](O[C@H]3[C@@H](O)C[C@H](O[C@H]4CC[C@]5(C)C6CC[C@]7(C)[C@@H](C8=CC(=O)OC8)CC[C@]7(O)C6CC[C@@H]5C4)O[C@@H]3C)O[C@@H]2C)C[C@H](O)[C@@H]1O (some centres undefined) | 189
CO[C@H]1[C@H](O)[C@@H](O[C@H]2CC[C@]3(C=O)C4CC[C@]5(C)[C@@H](C6=CC(=O)OC6)CC[C@]5(O)C4CC[C@@H]3C2)O[C@@H](C)[C@@H]1O (some centres undefined) | 93.2
CCCCC(CC)CN=C(N)NC(N)=NCCCCCCN=C(N)NC(N)=NCC(CC)CCCC (centres undefined) | 1670
CC(=O)[O][Hg][c]1ccccc1 | 1740
CO[C@H]1[C@H](O)[C@H](O[C@H]2CC[C@]3(C)C4CC[C@]5(C)C(C6=CC(=O)OC6)CC[C@]5(O)C4CC[C@@H]3C2)O[C@@H](C)[C@@H]1O (some centres undefined) | 78.6
CC(=O)O[C@H]1C[C@H](O[C@H]2[C@@H](O)C[C@H](O[C@H]3[C@@H](O)C[C@H](O[C@H]4CC[C@@]5(C)C(CCC6C5C[C@@H](O)[C@]5(C)[C@@H](C7=CC(=O)OC7)CC[C@]65O)C4)O[C@@H]3C)O[C@@H]2C)O[C@H](C)[C@H]1O[C@@H]1O[C@H](CO)[C@@H](O)[C@H](O)[C@H]1O (some centres undefined) | 7470
